Measured values taken from article PMC4166484 (European journal of medicinal chemistry, 2011).
Where two headings read alike, the source gives them in different places.

Columns and labels:
[1] = tested on: SKBR-3 breast cancer cell; assay: MTT cell viability, SKBR-3 breast cancer cell growth; assay type: cell-based
SKBR-3 cells = assay: Cell cycle distribution by FACS; assay type: cell-based; settings: SKBR-3, 0.5 μM and 5 μM, after 12h
[2] = tested on: 60 human tumor cell lines; assay: NCI DTP screen against 60 human tumor cell lines; assay type: cell-based; settings: read-out: IC50s, growth of a broad range of cancer cell lines
[3] = Pharmacokinetic study, intraperitoneal; assay type: in vivo, Sprague-Dawley rats; settings: male, Sprague-Dawley, rat, plasma, ip, 20 mg/kg
A498 = assay type: cell-based; settings: Homo sapiens, A498, 48 h

## Cc1ccc(C)c(COc2cc(NC(=O)Cc3ccccc3)ccc2N(C)S(C)(=O)=O)c1 [Compound 24, N-[3-(2,5-Dimethyl-benzyloxy)-4-(methanesulfonyl-methyl-amino)-phenyl]-2-phenyl-acetamide]
[1]; read-out: IC50 against SKBR-3 breast cancer cell growth, 48h treatment, MTT assay, six replicates
  IC50: > 30000 nM

## Cc1ccc(C)c(COc2cc(NC(=O)c3ccc4c(c3)OCO4)ccc2N(C)S(C)(=O)=O)c1 [Compound 10, Benzo[1,3]dioxole-5-carboxylic acid [3-(2,5-dimethyl-benzyloxy)-4-(methanesulfonyl-methyl-amino)-phenyl]-amide]
SKBR-3 cells
  cell cycle effect: accumulated at G2/M and subG1 phase
[2]
  IC50: 200 to 500 nM
[3]; Rat 2, 20mg/kg i.p.
  AUC(0-t): 22600 ng·h/mL
[3]; Rat 3, 20mg/kg i.p.
  AUC(0-t): 9720 ng·h/mL
[3]; MRT(0-t), Rat 3, 20mg/kg i.p.
  MRT last: 5.62 h
[3]; T1/2, Rat 1, 20mg/kg i.p.
  half-life: 2.44 h
[3]; T1/2, Rat 2, 20mg/kg i.p.
  half-life: 3.71 h
[3]; T1/2, Rat 3, 20mg/kg i.p.
  half-life: 3.21 h
A498
  GI50: 122 nM

## COc1ccc(CC(=O)Nc2ccc(N(C)S(C)(=O)=O)c(OCc3cc(C)ccc3C)c2)cc1OC [Compound 17, N-[3-(2,5-Dimethyl-benzyloxy)-4-(methanesulfonyl-methyl-amino)-phenyl]-(3,4-dimethoxyphenyl)-acetamide]
[1]; Homo sapiens, SK-BR-3, 48 h, read-out: IC50 against SKBR-3 breast cancer cell growth, 48h treatment, MTT assay, six replicates
  IC50: > 30000 nM
